# Measurements as given in BindingDB's records for doi:10.1016/j.bioorg.2010.11.002 (University of Catania, 2011).
# Experiments:
# Collagenase 3 = Collagenase 3 (Homo sapiens, UniProt P45452); experiment: Fluorimetric Assay; settings: pH 7; 25 °C
# Stromelysin-1 = Stromelysin-1 (Homo sapiens, UniProt P08254); experiment: Fluorimetric Assay; settings: pH 7; 25 °C
# Chain of Stromelysin-1 (P08254 whole entry): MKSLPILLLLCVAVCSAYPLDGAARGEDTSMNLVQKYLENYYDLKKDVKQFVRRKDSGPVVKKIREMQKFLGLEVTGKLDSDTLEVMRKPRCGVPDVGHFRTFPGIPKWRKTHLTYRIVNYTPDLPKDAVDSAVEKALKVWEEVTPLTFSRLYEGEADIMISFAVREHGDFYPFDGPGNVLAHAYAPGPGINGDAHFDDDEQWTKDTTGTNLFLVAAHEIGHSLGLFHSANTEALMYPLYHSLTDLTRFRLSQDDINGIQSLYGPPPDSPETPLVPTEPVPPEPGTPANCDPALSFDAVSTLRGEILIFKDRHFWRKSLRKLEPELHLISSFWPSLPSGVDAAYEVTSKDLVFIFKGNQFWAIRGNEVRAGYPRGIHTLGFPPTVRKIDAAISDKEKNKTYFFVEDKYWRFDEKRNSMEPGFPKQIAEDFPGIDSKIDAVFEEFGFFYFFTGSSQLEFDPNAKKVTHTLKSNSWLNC
IC50 (Collagenase 3),IC50 (Stromelysin-1),SMILES
32 µM,–,"O=C1N/C(=N/c2nsc3ccccc23)S/C1=C/c1ccccc1 [2-(benzo[d]isothiazol-3-ylimino)-5-benzylidenethiazolidin-4-one, 2b]"
–,36.7 µM,"Oc1csc(Nc2nc3ccccc3s2)n1 [2-(benzo[d]-thiazol-2-ylimino)-thiazolidin-4-one, 1a]"
